The record followed here is PMC5838524 (Molecular Informatics, 2018).

SMILES strings stand for the structures.

Common to all, as to assay: Gal4 hybrid reporter gene assay
Type in all cases: cell-based
Settings in all cases: agonist mode; printed as 'inactive' (no significant transactivation at 30 μM)
For orientation: Reporter assays use an easily measured gene product as a stand-in for the process of interest.

For one test, the target named is T1, PPARα (Homo sapiens, UniProt Q07869).
T1 sequence (Q07869 167-468 limits assumed): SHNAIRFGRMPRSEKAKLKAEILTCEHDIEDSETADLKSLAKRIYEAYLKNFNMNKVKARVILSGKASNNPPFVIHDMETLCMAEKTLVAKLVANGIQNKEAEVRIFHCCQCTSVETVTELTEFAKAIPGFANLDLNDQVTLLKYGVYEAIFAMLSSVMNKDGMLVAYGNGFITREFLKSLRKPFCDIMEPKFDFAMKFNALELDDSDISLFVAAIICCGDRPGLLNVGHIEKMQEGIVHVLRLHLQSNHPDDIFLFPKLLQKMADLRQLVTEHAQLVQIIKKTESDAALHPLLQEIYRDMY

Another test deals with T2, PPARδ (Homo sapiens, UniProt Q03181).
T2 sequence (Q03181 139-441 limits assumed): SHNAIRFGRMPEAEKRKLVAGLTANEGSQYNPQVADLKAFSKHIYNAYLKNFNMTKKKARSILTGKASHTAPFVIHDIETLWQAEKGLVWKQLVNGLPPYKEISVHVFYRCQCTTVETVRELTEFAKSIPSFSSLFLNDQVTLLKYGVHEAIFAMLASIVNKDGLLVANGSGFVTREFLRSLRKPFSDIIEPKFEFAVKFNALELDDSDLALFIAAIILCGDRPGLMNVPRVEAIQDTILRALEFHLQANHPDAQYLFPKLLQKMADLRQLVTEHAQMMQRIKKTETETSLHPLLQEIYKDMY

For the next test, the target named is T3, RXRα (Homo sapiens, UniProt P19793).
T3 sequence (P19793 225-462 limits assumed): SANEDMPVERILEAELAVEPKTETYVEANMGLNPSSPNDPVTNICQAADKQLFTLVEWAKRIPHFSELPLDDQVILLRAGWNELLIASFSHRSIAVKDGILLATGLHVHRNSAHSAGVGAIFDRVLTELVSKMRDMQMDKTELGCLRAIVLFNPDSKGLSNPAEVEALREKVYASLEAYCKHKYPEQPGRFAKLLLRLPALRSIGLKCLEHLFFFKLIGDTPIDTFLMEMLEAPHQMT

For a further test, the target named is T4, RXRβ (Homo sapiens, UniProt P28702).
T4 sequence (P28702 296-533 limits assumed): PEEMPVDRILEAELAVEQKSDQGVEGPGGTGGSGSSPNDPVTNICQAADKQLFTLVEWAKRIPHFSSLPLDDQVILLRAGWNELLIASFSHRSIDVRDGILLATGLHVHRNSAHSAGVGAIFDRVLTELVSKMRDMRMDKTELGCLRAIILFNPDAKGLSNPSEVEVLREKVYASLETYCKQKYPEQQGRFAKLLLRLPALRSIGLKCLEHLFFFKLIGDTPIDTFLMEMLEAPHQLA

A further test concerns the target T5, RXRγ (Homo sapiens, UniProt P48443).
T5 sequence (P48443 231-459 limits assumed): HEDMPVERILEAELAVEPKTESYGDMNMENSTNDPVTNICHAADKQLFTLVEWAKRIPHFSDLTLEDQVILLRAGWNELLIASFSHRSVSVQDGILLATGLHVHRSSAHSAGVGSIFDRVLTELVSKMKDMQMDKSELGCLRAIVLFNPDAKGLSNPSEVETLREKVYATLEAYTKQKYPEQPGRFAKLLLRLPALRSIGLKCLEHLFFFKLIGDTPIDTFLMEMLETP

Usually EC50 stands for the concentration giving half of the maximal effect.

Turning to `O=C(O)c1cccc(NC(=O)c2ccc(-c3ccccc3)s2)c1` [compound 1, design 1], the EC50 at PPARα and at PPARδ was above 30 µM each time.
`O=C(O)c1ccc(-c2cc(F)ccc2OCc2ccc(F)cc2)c(C(F)(F)F)c1` [compound 2, design 2]: the EC50 on PPARα and at PPARδ was above 30 µM throughout.
Take `O=C(O)c1ccc(-c2cccc(O)c2)cc1OC1CCCC1` [compound 3, design 3]: the EC50 at RXRα, at PPARδ, at RXRβ and at RXRγ was above 30 µM throughout.
